Data reported in US12163953B2, “P-phenylene ethynylene compounds as bioactive and detection agents” (STC.UNM, priority 2014, dated 2024).
Like-named read-outs stand apart in the source and are kept apart here.

Legend:
[1] = target: T1, HEWL fibrils incubated for different lengths of time (Gallus gallus, UniProt P00698); assay: Fluorescence enhancement of dyes versus HEWL incubation time; assay type: binding, hen; conditions: dye 10 μM, HEWL 10 μM monomer basis
T1 construct: Lyophilized HEWL was dissolved at 10 mg/mL in 10 mM pH 3 sodium citrate buffer with 0.1 M NaCl; purchased Sigma-Aldrich; host or cells: hen egg white; fibrillised in house (pH 3, 70 °C, stirred)
T1 sequence (P00698 19-147): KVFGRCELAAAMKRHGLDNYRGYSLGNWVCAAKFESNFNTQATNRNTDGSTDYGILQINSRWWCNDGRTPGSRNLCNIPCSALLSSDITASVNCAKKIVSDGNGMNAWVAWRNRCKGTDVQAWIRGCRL
Method: Hen egg white lysozyme (HEWL) was used to form fibrillary amyloid aggregates for use in this study. […] For these experiments. HEWL (Sigma-Aldrich) was incubated at 70′C and a concentration of 350 μM in pH 3 sodium citrate buffer (10 mM) with 100 mM NaCl.
A plot of normalized fluorescence enhancement for all four PEs and Thioflavin T with HEWL fibrils incubated for different lengths of time is shown in FIG. 15. PE1+ and PE2+ track amyloid formation in roughly the same way as ThT, showing a sigmoidal curve with onset of a logarithmic growth phase occurring at the same time, around 1 hour of incubation. The plateau phase, as monitored by fluorescence of any of those three PEs or ThT, appeared at 2 hours incubation.
(§1) For studies of fluorescence enhancement vs. protein incubation time, dyes were mixed with protein sample in phosphate buffer (10 mM, pH 7.4) at equal monomer concentration of 10 μM in the wells of a standard 96-well plate. Emission spectra were obtained using top read with a SpectraMax M2e plate-reading spectrophotometer (Molecular Devices, Sunnyvale, CA). Experiments were performed in duplicate and errors are reported as standard deviation. For analysis of bound PE excitation and emission spectra and protein-PE energy transfer, PEs (500 nM) were mixed with protein sample (5 μM, monomer basis) in phosphate buffer and the solution transferred to a quartz, fluorometry cuvette. Spectra were obtained on a PTI QuantaMaster 40 steady state spectrofluorometer (HORIBA Scientific, Edison, NJ).

[2] = target: T2, HEWL amyloids (Gallus gallus, UniProt P00698); assay: Excitation and emission spectra of PEs with HEWL amyloids; assay type: binding, hen; conditions: PE 500 nM, HEWL amyloid 5 μM monomer basis
T2 construct: Lyophilized HEWL was dissolved at 10 mg/mL in 10 mM pH 3 sodium citrate buffer with 0.1 M NaCl; purchased Sigma-Aldrich; host or cells: hen egg white; fibrillised in house (pH 3, 70 °C, stirred)
T2 sequence (P00698 19-147): as above
Method: Excitation and emission spectra of PEs in phosphate buffer alone, with monomeric HEWL and with HEWL amyloids (8 h incubated) are shown in FIGS. 18A-H, and relevant photophysical properties are summarized in Table 1. FIGS. 18A-H illustrate excitation (A, B, C, D) and emission (right; E, F, G. H) spectra of PEs (A, E: PE1+; B, F: PE1−; C, G: PE2+; D, H: PE3+) in phosphate buffer (PB, pH 7.4, 10 mM) alone (long dashed line) with HEWL monomers (short dashed line) and with HEWL amyloids (solid line); PE concentration: 500 nM, protein concentration: 5 μM monomer basis/0.25 mg/mL; emission and excitation wavelengths, respectively, were chosen as shown in Table 1 for each sample. A 10:1 molar ratio of protein to PE was used for these experiments. Absorbance spectra were taken, but background light scattering from insoluble amyloid aggregates made them difficult to interpret, so “fluorescence detected absorbance” in the form of excitation spectra was used instead. Normalized excitation and emission spectra, in which peak shifts and lineshape changes of spectra were somewhat easier to visualize, were used. […] PE1+ (FIG. 18E) had no change in wavelength or lineshape of emission spectrum, just a large increase in intensity when mixed with amyloids. The excitation spectra (FIGS. 18A, B, C, D) show a notable bathochromic shift for each PE in solution mixed with amyloid, of 23, 27, 35 and 29 nm for PE1+, PE2+, PE3+ and PE1−, respectively, observing only the low-energy band. The high-energy band, less relevant for imaging purposes, was also bathochromically shifted. […] PE1− had similar excitation spectrum (FIG. 18B) with monomer and amyloid, except for a large intensity difference.
Lyophilized HEWL was dissolved at 10 mg/mL in 10 mM pH 3 sodium citrate buffer with 0.1 M NaCl. The solution was incubated in a 70C oil bath and magnetically stirred at 250 rpm for 12 h, and aliquots were withdrawn at half-hour intervals. […] Half of each aliquot was immediately diluted into pH 7.4 phosphate buffer to prevent further influence of acidic conditions and stored at 4C.
as §1

[3] = target: T3, HEWL amyloid fibrils (Gallus gallus, UniProt P00698); assay: Induced circular dichroism of PE-amyloid complexes; assay type: binding, hen; conditions: PEs 10 μM, HEWL 10 μM monomer basis
T3 construct: Lyophilized HEWL was dissolved at 10 mg/mL in 10 mM pH 3 sodium citrate buffer with 0.1 M NaCl; purchased Sigma-Aldrich; host or cells: hen egg white; fibrillised in house (pH 3, 70 °C, stirred)
T3 sequence (P00698 19-147): as above
Method: Circular dichroism measurements were performed to determine if the intrinsic chirality of the HEWL fibrils was transferred to the PE chromophore by a chiral backbone twist or an “excitonic” chiral supramolecular aggregate. CD spectroscopy (CPEs in PB with HEWL monomer and with HEWL amyloid; performed for (a): PE1+; (b): PE1−; (c): PE2+; (d): PE3+; PEs 10 μM, HEWL 10 μM monomer basis/0.5 mg/mL) indicated induced circular dichroism of PEs when bound to HEWL amyloids. As expected, no PE had optical activity by itself in phosphate buffer solution and none of the PEs had any CD with HEWL monomer, including PE1−. […] PE2+ and PE3+ gave rise to similar CD spectra, with more intense bands in the spectrum for PE3+.
PEs and protein samples were diluted in phosphate buffer, gently vortexed, and read in a 1 mm pathlength quartz CD cuvette using an Aviv 410 CD spectrometer (Aviv Biomedical, Lakewood, NJ), 15 s averaging time. A blank spectrum (PB only) was subtracted from each sample to remove background activity. Error bars are standard deviation over multiple reads of a single sample as reported by the instrument.

[4] = target: T4, HEWL amyloid (Gallus gallus, UniProt P00698); assay: Binding saturation assay of PEs to HEWL amyloid (Hill fit); design: species or system hen; conditions: for Hill coeffi.: PE binding to HEWL amyloid
T4 construct: Lyophilized HEWL was dissolved at 10 mg/mL in 10 mM pH 3 sodium citrate buffer with 0.1 M NaCl; purchased Sigma-Aldrich; host or cells: hen egg white; fibrillised in house (pH 3, 70 °C, stirred)
T4 sequence (P00698 19-147): as above
Method: Next, binding saturation assays were conducted to quantify the affinity of PE-amyloid binding; data and fitted curves were produced and the fitted parameters are summarized in the last two columns of Table 1. Since the linear fibril binding sites could fit many PEs, fits to binding curves were performed to the Hill equation to capture possible binding cooperativity:
[formula] where x is PE concentration (with protein concentration fixed), y is PE fluorescence intensity. […] Fits to the data for the three cationic PEs produced Fmax values close to the observed saturation value, and the other two parameters are reported as calculated. […] Furthermore, the cooperativity of PE binding increased from almost no cooperativity for PE1+, to some positive cooperativity for PE2+, to still more positive cooperativity for PE3+. The quantitative physical meaning of the Hill parameter is not quite clear except in special cases, but in a general way it is possible to conclude that for the cationic PEs, the shortest PE has non-cooperative binding to HEWL amyloid (Michaelis-Menten binding), and the two longer PEs have increasingly positively cooperative binding. […] The effect of PE1− non-specific binding to HEWL monomers precluded accurate determination of a binding constant for PE1−/amyloid interactions such that a quantitative comparison of binding between the cationic and anionic compounds could not be made.
For determination of binding constant of PEs to amyloid aggregates, PEs were mixed with HEWL amyloid in phosphate buffer at a final concentration of 100 nM-5 μM for PEs and 5 μM (monomer basis) for protein. The solutions were then transferred to a quartz fluorometry cuvette and emission measured at the pertinent wavelength. Experiments were performed in duplicate and errors reported as standard deviation. Hill function fits to PE binding curves were calculated in OriginPro 9.

Row | Kd ([4]; HEWL amyloid, Hill fit, read-out: calculated dissociation constant) [nM] | Compound | HEWL incubation time at which the plateau phase of fluorescence enhancement appears [1] | bathochromic shift of excitation spectrum, low-energy band, with amyloid [2] [nm] | blueshifting of the fluorescence maximum with amyloid [2] [nm] | λem (PB w/ HEWL) [2] [nm] | λex (PB w/HEWL), high-energy band [2] [nm] | λex (PB w/HEWL), low-energy band [2] [nm] | induced circular dichroism with HEWL amyloid [3] | Kd [4] [nM] | Hill coeffi. [4]
1 | – | CCOC(=O)c1ccc(C#Cc2cc(OCC[N+](C)(C)C)c(C#Cc3ccc(C#Cc4cc(OCC[N+](C)(C)C)c(C#Cc5ccc(C(=O)OCC)cc5)cc4OCC[N+](C)(C)C)cc3)cc2OCC[N+](C)(C)C)cc1 [PE2+] | 2 h | 27 | ~10 | 445 | 337 | 426 | strong induced CD with a negative Cotton effect | 1150 | 1.15
2 | 858 | CCOC(=O)c1ccc(C#Cc2cc(OCC[N+](C)(C)C)c(C#Cc3ccc(C#Cc4cc(OCC[N+](C)(C)C)c(C#Cc5ccc(C#Cc6cc(OCC[N+](C)(C)C)c(C#Cc7ccc(C(=O)OCC)cc7)cc6OCC[N+](C)(C)C)cc5)cc4OCC[N+](C)(C)C)cc3)cc2OCC[N+](C)(C)C)cc1 [PE3+] | up to 3.5 hours | 35 | ~10 | 453 | 335 | 434 | strong induced CD with a negative Cotton effect | – | 1.89
